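Test compounds were applied to cells in 96-well plates for 48 hours at 5 doses. Definition used: TGI = concentration required for complete inhibition of growth.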
Tests used:
Test in all cases: NCI tumour cell line growth inhibition, 48 h
DLD-1 colon = system: DLD-1 colon
DMS 273 small cell lung = system: DMS 273 small cell lung
HOP-18 NSCLC = system: HOP-18 NSCLC
M19-MEL melanoma = system: M19-MEL melanoma
P388 leukemia = system: P388 leukemia
SN12K1 renal = system: SN12K1 renal
XF 498 CNS = system: XF 498 CNS
LXFL 529 NSCLC = system: LXFL 529 NSCLC
RXF-631 renal = system: RXF-631 renal
P388/ADR leukemia = system: P388/ADR leukemia

| SMILES | TGI (DLD-1 colon) [µM] | TGI (DMS 273 small cell lung) [µM] | TGI (HOP-18 NSCLC) [µM] | TGI (M19-MEL melanoma) [µM] | TGI (P388 leukemia) [µM] | TGI (SN12K1 renal) [µM] | TGI (XF 498 CNS) [µM] | TGI (LXFL 529 NSCLC) [µM] | TGI (RXF-631 renal) [µM] | TGI (P388/ADR leukemia) [µM] |
| --- | --- | --- | --- | --- | --- | --- | --- | --- | --- | --- |
| CSc1nc2c(ncn2C2OC(CO)C(O)C(O)C2O)c(=O)[nH]1 (configuration not stated) | > 100 | > 100 | > 100 | > 100 | > 100 | > 100 | > 100 | – | – | – |
| C=C1C(=O)C23C(O)CC4C5(C)CCCC4(C(O)OC5)C2C(OC(C)=O)CC1C3O (configuration not stated) | 20.6 | 41.3 | 30.4 | 30.7 | – | – | – | 12.2 | – | – |
| O=C(NN1C(=O)CSC1c1cccc(F)c1)c1ccncc1 (configuration not stated) | – | > 100 | – | – | – | – | > 100 | > 100 | > 100 | – |
| O=C(O)CCCCCCCCC(=O)O | > 500 | > 500 | > 500 | > 500 | > 281 | > 500 | > 50 | – | – | > 500 |
| COc1cc(C2c3cc4c(cc3[C@@H](Nc3ccc5c(c3)OCO5)C3COC(=O)[C@H]23)OCO4)cc(OC)c1O (some centres not stated) | 5.45 | 1.4 | 11 | > 100 | 0.393 | 5.82 | 16.7 | – | – | 0.71 |
| c1ccc2c(c1)CCCC/C2=N/OCC1CO1 (configuration not stated) | > 100 | > 100 | > 100 | – | – | – | 77.3 | > 100 | – | – |
| O=C1c2cccc(O)c2C(=O)c2c(O)cc(CO)cc21 | > 100 | > 100 | > 100 | – | – | – | > 100 | > 100 | > 100 | – |
| COc1ccc(/C=N/n2c(C)nc3c(sc(=S)n3-c3ccccc3)c2=O)cc1 | > 100 | – | > 100 | > 100 | – | – | – | > 100 | – | – |

From PubChem BioAssay (NCI)
